The source of these data is patent publication US10781181B2, “N-((het) arylmethyl)-heteroaryl-carboxamides compounds as plasma kallikrein inhibitors” (Kalvista Pharmaceuticals Limited, priority 2014, dated 2020).

What all share (assay type): biochemical
The target in one test is Human plasma kallikrein (Homo sapiens (Human), UniProt P03952). The test can be described thus: Determination of the IC50 for plasma kallikrein. Particulars: read-out: IC50 (human PKal). As for the experimental part:
Determination of the IC50 for Plasma Kallikrein
Human plasma kallikrein (Protogen) was incubated at 25° C. with the fluorogenic substrate H-DPro-Phe-Arg-AFC and various concentrations of the test compound. Residual enzyme activity (initial rate of reaction) was determined by measuring the change in […] at 410 nm and the IC50 value for the test compound was determined.

A further test concerns the target Human KLK1 (Homo sapiens (Human), UniProt P06870). Briefly: Determination of the IC50 for KLK1. Particulars: human KLK1, 25° C., substrate H-DVal-Leu-Arg-AFC. On the procedure: Determination of the IC50 for KLK1
Human KLK1 (Callbiochem) was incubated at 25° C. with the fluorogenic substrate H-DVal-Leu-Arg-AFC and various concentrations of the test compound. Residual enzyme activity (initial rate of reaction) was determined by measuring the change in […] at 410 nm and the IC50 value for the test compound was determined.

The next test addresses Human FXIa (Homo sapiens (Human), UniProt P03951). The test can be described thus: Determination of the % inhibition for FXIa. The following applies: 40 μM of the test compound, human FXIa, 25° C.; read-out: % Inhibition @ 40 μM (human FXIa). As for the experimental part:
Determination of the % Inhibition for FXIa
Human FXIa (Enzyme Research Laboratories) was incubated at 25° C. with the fluorogenic substrate Z-Gly-Pro-Arg-AFC and 40 μM of the test compound. Residual enzyme activity (initial rate of reaction) was determined by measuring the change in […].

Where only a bound is given, the exact number is not on record here.

Chain of Human KLK1 (P06870 25-262): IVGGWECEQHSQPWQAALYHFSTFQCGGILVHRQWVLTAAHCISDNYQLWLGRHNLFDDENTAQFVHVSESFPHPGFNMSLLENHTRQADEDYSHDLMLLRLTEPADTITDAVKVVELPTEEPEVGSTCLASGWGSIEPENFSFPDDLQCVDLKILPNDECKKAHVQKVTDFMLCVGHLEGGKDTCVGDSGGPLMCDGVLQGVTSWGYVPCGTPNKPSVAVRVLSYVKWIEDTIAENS
Chain of Human plasma kallikrein (P03952 391-638): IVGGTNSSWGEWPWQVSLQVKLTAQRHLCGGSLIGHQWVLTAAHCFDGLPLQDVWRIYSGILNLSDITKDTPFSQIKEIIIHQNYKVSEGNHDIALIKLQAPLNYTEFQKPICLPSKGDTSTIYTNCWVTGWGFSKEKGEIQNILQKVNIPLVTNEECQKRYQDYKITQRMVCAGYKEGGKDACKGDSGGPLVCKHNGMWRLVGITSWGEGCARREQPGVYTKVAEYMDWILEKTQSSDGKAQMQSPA
Chain of Human plasma kallikrein (P03952 20-390 partner): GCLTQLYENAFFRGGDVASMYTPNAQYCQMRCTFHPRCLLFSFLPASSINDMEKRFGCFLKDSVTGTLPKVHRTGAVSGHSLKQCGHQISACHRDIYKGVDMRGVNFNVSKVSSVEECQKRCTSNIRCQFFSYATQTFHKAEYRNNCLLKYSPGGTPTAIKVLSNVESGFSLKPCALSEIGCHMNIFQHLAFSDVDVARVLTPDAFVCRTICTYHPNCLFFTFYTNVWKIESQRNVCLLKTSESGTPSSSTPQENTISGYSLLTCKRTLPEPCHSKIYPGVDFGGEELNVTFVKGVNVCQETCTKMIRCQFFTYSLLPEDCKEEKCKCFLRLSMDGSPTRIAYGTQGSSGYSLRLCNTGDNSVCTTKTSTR
Chain of Human FXIa (P03951 388-625 limits assumed): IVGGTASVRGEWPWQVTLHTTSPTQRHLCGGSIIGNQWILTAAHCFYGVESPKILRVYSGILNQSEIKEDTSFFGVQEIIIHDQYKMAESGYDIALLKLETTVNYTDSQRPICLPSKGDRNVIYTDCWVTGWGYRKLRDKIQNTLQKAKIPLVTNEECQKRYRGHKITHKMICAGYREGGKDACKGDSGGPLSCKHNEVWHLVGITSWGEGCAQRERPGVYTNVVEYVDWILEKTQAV
Chain of Human FXIa (P03951 19-387 partner limits assumed): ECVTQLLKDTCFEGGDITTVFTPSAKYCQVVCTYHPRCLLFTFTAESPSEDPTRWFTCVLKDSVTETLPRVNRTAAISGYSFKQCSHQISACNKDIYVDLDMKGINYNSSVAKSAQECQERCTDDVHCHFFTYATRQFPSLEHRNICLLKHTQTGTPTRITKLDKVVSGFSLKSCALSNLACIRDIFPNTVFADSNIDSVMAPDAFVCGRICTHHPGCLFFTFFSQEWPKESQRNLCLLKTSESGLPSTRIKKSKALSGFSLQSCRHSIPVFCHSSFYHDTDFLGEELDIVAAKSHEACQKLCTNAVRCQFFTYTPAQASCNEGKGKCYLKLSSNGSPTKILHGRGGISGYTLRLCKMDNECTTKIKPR

A word on the IC50: it is the concentration needed to halve the response being measured. The term inhibition denotes the change of the read-out against control, counted positive when it falls. As for `CNC(=O)CNc1ccc(Cn2cc(C(=O)NCCOc3cccc(Cl)c3)c(N)n2)cn1` [Example 78, 3-amino-N-[2-(3-chlorophenoxy)ethyl]-1-[(6-{[(methylcarbamoyl)methyl]amino}pyridin-3-yl)methyl]pyrazole-4-carboxamide], the IC50 on Human plasma kallikrein was 6.93 µM; against Human KLK1 it was more than 40 µM. Further, the inhibition at 40 µM on Human FXIa is 4%.
On to `CNC(=O)CNc1cc(Cn2cc(C(=O)NCCOc3cccc(Cl)c3)c(N)n2)ccn1` [Example 68, 3-amino-N-[2-(3-chlorophenoxy)ethyl]-1-[(2-{[(methylcarbamoyl)methyl]amino}pyridin-4-yl)methyl]pyrazole-4-carboxamide], for which the figures for the IC50 at Human plasma kallikrein and at Human KLK1 were more than 10 µM and more than 40 µM, respectively. Besides, the inhibition at 40 µM at Human FXIa was 0%.
Consider `CN(Cc1ccc(Cn2cc(C(=O)NCCOc3cccc(Cl)c3)c(N)n2)cc1)c1ccccn1` [Example 87, 3-amino-N-[2-(3-chlorophenoxy)ethyl]-1-[(4-{[methyl(pyridin-2-yl)amino]methyl}phenyl)methyl]pyrazole-4-carboxamide], for which the IC50 was 0.78 µM on Human plasma kallikrein and more than 40 µM on Human KLK1. The inhibition at 40 µM at Human FXIa is 0%.
On to `COCc1nn(Cc2ccc(Cn3ccccc3=O)cc2)cc1C(=O)NCCOc1ccc(F)c(Cl)c1` [Example 12, N-[2-(3-chloro-4-fluorophenoxy)ethyl]-3-(methoxymethyl)-1-({4-[(2-oxopyridin-1-yl)methyl]phenyl}methyl)pyrazole-4-carboxamide], for which the IC50 is 0.266 µM on Human plasma kallikrein and more than 10 µM on Human KLK1. For the same compound, the inhibition at 40 µM on Human FXIa is 0%.
With `Nc1nn(Cc2ccnc(-c3cccnc3)c2)cc1C(=O)NCCOc1cccc(Cl)c1` [Example 91, 3-amino-N-[2-(3-chlorophenoxy)ethyl]-1-{[2-(pyridin-3-yl)pyridin-4-yl]methyl}pyrazole-4-carboxamide], the values for the IC50 at Human plasma kallikrein and against Human KLK1 were 3.78 µM and more than 40 µM, respectively. Further, on Human FXIa, the inhibition at 40 µM turned out to be 0%.
On to `Nc1nn(Cc2ccc(Cn3ccccc3=O)cc2)cc1C(=O)NCC(=O)Nc1cccc(Cl)c1` [Example 2], for which the IC50 at Human plasma kallikrein is 0.0602 µM; at Human KLK1, more than 10 µM. Moreover, the inhibition at 40 µM at Human FXIa came to 0%.
As for `Nc1nn(Cc2ccnc(N3CCCC3)c2)cc1C(=O)NCCOc1cccc(Cl)c1` [Example 50, 3-amino-N-[2-(3-chlorophenoxy)ethyl]-1-{[2-(pyrrolidin-1-yl)pyridin-4-yl]methyl}pyrazole-4-carboxamide], the figures for the IC50 on Human plasma kallikrein and against Human KLK1 were 0.326 µM and more than 40 µM, respectively. The inhibition at 40 µM on Human FXIa is 59%.
The like results for `COc1cc(Cn2cc(C(=O)NCCOc3cccc(Cl)c3)c(N)n2)ccn1` [Example 73, 3-amino-N-[2-(3-chlorophenoxy)ethyl]-1-[(2-methoxypyridin-4-yl)methyl]pyrazole-4-carboxamide] were, in that order, more than 10 µM, more than 40 µM and 0%.
In the case of `Nc1nn(Cc2ccc(Cn3ccccc3=O)cc2)cc1C(=O)N[C@H]1CCN(c2cc(Cl)ccn2)C1` [Example 112, 3-amino-N-[(3S)-1-(4-chloropyridin-2-yl)pyrrolidin-3-yl]-1-({4-[(2-oxopyridin-1-yl)methyl]phenyl}methyl)pyrazole-4-carboxamide], the IC50 on Human plasma kallikrein is 7.46 µM; against Human KLK1 it was more than 40 µM. Further, the inhibition at 40 µM at Human FXIa was determined as 29%.
As to `Nc1nn(Cc2ccc(Cn3ccccc3=O)cc2)cc1C(=O)NCCOc1cncc(Cl)c1` [Example 18, 3-amino-N-{2-[(5-chloropyridin-3-yl)oxy]ethyl}-1-({4-[(2-oxopyridin-1-yl)methyl]phenyl}methyl)pyrazole-4-carboxamide], the figures for the IC50 at Human plasma kallikrein and on Human KLK1 were 2.01 µM and more than 40 µM, respectively. Besides, at Human FXIa, the inhibition at 40 µM stood at 0%.
Consider `Nc1nn(Cc2nc(-c3ccccc3)no2)cc1C(=O)NCCOc1cccc(Cl)c1` [Example 80, 3-amino-N-[2-(3-chlorophenoxy)ethyl]-1-[(3-phenyl-1,2,4-oxadiazol-5-yl)methyl]pyrazole-4-carboxamide], for which the IC50 at Human plasma kallikrein was 6.33 µM; on Human KLK1, more than 40 µM. In addition, at Human FXIa, the inhibition at 40 µM was 0%.
With `CNC(=O)c1ccc(Cn2cc(C(=O)NCCOc3cccc(Cl)c3)c(N)n2)cc1` [Example 61, 3-amino-N-[2-(3-chlorophenoxy)ethyl]-1-{[4-(methylcarbamoyl)phenyl]methyl}pyrazole-4-carboxamide], the results for the IC50 at Human plasma kallikrein and against Human KLK1 were 7.25 µM and more than 40 µM, respectively. In addition, the inhibition at 40 µM at Human FXIa turned out to be 0%.
As for `Nc1nn(Cc2cccc(C(=O)N3CCCC3)c2)cc1C(=O)NCCOc1cccc(Cl)c1` [Example 70, 3-amino-N-[2-(3-chlorophenoxy)ethyl]-1-({3-[(pyrrolidin-1-yl)carbonyl]phenyl}methyl)pyrazole-4-carboxamide], the IC50 is more than 10 µM on Human plasma kallikrein and more than 40 µM against Human KLK1. Further, on Human FXIa, the inhibition at 40 µM came out at 6%.
The like results for `Cn1ncc2cc(Cn3cc(C(=O)NCCOc4cccc(Cl)c4)c(N)n3)ccc21` [Example 93, 3-amino-N-[2-(3-chlorophenoxy)ethyl]-1-[(1-methylindazol-5-yl)methyl]pyrazole-4-carboxamide] were, in that order, more than 10 µM, more than 40 µM and 2%.
For `Nc1nn(Cc2ccc(Cn3ccccc3=O)cc2)cc1C(=O)N[C@@H]1CCN(c2cccc(Cl)c2)C1=O` [Example 110, 3-amino-N-[(3R)-1-(3-chlorophenyl)-2-oxopyrrolidin-3-yl]-1-({4-[(2-oxopyridin-1-yl)methyl]phenyl}methyl)pyrazole-4-carboxamide], the IC50 is 0.004 µM at Human plasma kallikrein and more than 40 µM against Human KLK1. Besides, the inhibition at 40 µM at Human FXIa was 13%.
As for `CN(C)C(=O)N(C)Cc1ccc(Cn2cc(C(=O)NCCOc3cccc(Cl)c3)c(N)n2)cc1` [Example 83, 3-amino-N-[2-(3-chlorophenoxy)ethyl]-1-[(4-{[(dimethylcarbamoyl)(methyl)amino]methyl}phenyl)methyl]pyrazole-4-carboxamide], the IC50 was 0.298 µM on Human plasma kallikrein and more than 40 µM at Human KLK1. Also, the inhibition at 40 µM on Human FXIa was 0%.
For the compound `COCc1nn(Cc2ccc(Cn3cc(C)cn3)cc2)cc1C(=O)NCCOc1cccc(Cl)c1` [Example 27, N-[2-(3-chlorophenoxy)ethyl]-3-(methoxymethyl)-1-({4-[(4-methylpyrazol-1-yl)methyl]phenyl}methyl)pyrazole-4-carboxamide], the IC50 at Human plasma kallikrein is 0.231 µM; against Human KLK1 it was more than 10 µM. Besides, the inhibition at 40 µM at Human FXIa was 0%.
For `Cc1ccc(Cl)cc1OCCNC(=O)c1cn(Cc2ccc(Cn3ccccc3=O)cc2)nc1N` [Example 14, 3-amino-N-[2-(5-chloro-2-methylphenoxy)ethyl]-1-({4-[(2-oxopyridin-1-yl)methyl]phenyl}methyl)pyrazole-4-carboxamide], the IC50 is 0.161 µM on Human plasma kallikrein and more than 40 µM against Human KLK1. Moreover, the inhibition at 40 µM at Human FXIa stood at 0%.
Regarding `CC(=O)N(C)Cc1ccc(Cn2cc(C(=O)NCCOc3cccc(Cl)c3)c(N)n2)cc1` [Example 82, 3-amino-N-[2-(3-chlorophenoxy)ethyl]-1-({4-[(N-methylacetamido)methyl]phenyl}methyl)pyrazole-4-carboxamide], the values for the IC50 at Human plasma kallikrein and on Human KLK1 were 0.71 µM and more than 40 µM, respectively. On Human FXIa, the inhibition at 40 µM worked out at 0%.
